Reference: patent publication US9382204B2, “Inhibitors targeting the DNA-binding domain of human STAT3 for treatment of metastatic cancers” (Indiana University Research and Technology Corporation, priority 2013, dated 2016)

Experiments:
[1] = test system: STAT3; test: ChIP assay of STAT3 bound to cyclin D1 promoter; assay type: cell-based, human
Description: ChIP was performed as previously described. Briefly, H1299 cells were treated with 1% formaldehyde for 10 min and lysates of the cells were sonicated to shear DNA to lengths between 200 and 1000 bases, which were then subjected to ChIP using Chromatin Immunoprecipitation Assay Kit (EMD Millipore, Billerica, Mass.) and normal IgG or STAT3 specific antibody (Santa Cruz) according to manufacturer's instructions. The primers for PCR of cyclin D1 promoter are 5′-[…]-3′ SEQ ID NO: 23 (forward) and 5′-[…]-3′ SED ID NO: 24 (reverse).

[2] = test system: A549 cells; test: Mouse xenograft model of A549 cells; assay type: in vivo, NOD/SCID mice
Description: For efficacy study. 5×10^6 A549 cells were injected subcutaneously in the flanks of 12 NOD/SCID mice. When the tumor volume reached about 50.0 mm^3, the mice were randomized into two different groups (6/group) with one treated by formulation vehicle control (Pharmatek Laboratories, San Diego, Calif.) and the other by A18 at 200 mg/kg with oral dosing every two days for four weeks. One mouse in each group died during the study and was eliminated. Tumor volume and body weight were measured twice a week. On the 35th day after implant, mice were euthanized and the tumor tissues were harvested and weighed. Necropsy was also performed to determine the changes in heart, lungs, kidneys, liver and spleen. To evaluate the histological alternation, metastasis in the lung and the expression of STAT3 and its downstream proteins, paraffin-embedded tissue sections were stained with ematoxylin and eosin (H&E) and/or used for immunohistochemistry analysis.

[3] = mouse, in vivo
[4] = test system: IMR90 and MCF10A1 cells; test: Cytotoxicity sulphorhodamine (SRB) assay, non-cancerous cells
Description: (§1) FIG. 7. […] (A) Level of STAT3 expression and activation. […] Actin was used as a loading control. (B-C) Cytotoxicity assay. […] IC50 of inS3-54 for each cell line was derived using PrismPad program. (D) Apoptosis assay.
(§2) Cytotoxicity of inS3-54 was determined using sulphorhodamine colorimetric assay as described previously (41). Photometric enzyme immunoassay using Cell Death Detection ELISA Plus kit (Roche Diagnostics, Indianapolis, Ind.) was performed for quantitative in-vitro determination of cytoplasmic histone-associated DNA fragments and apoptosis as we previously described.
(§3) Survival, apoptosis, migration, and invasion assays were performed as previously described. Briefly, effect of STAT3 inhibitors on cell survival were analyzed using sulforhodamine B (SRB) assay. Apoptosis induced by STAT3 inhibitors cells were quantified using Cell Death Detection ELISA^PLUS Kit (Roche, Mannheim, Germany) by enzyme-linked immunosorbent assay (ELISA) according to manufacturer's instructions. Wound filling assay was performed by culturing 1×10^5 cells/well in 6-well plates, followed by generating a wound using a pipet tip and continuous culture with photographic recording at different times.

[5] = Pilot pharmacokinetic study
[6] = test system: STAT3; test: STAT3 dimerization (STAT3c non-reducing PAGE, HA/FLAG co-immunoprecipitation) in H1299 cells; assay type: cell-based, human; conditions: 20 μM
Source text: To eliminate the possibility that inS3-54 works by off-targeting to the SH2 domain, we tested if inS3-54 inhibits STAT3 dimerization using FLAG-STAT3c, which forms spontaneous homo-dimers via formation of intermolecular disulfide bond.
However, inS3-54 had no effect on production of dimeric STAT3c separated using non-reducing SDS-PAGE or non-denaturing PAGE (FIG. 6B) while S3I-201, a STAT3 inhibitor that binds to the SH2 domain, inhibited STAT3c dimerization (FIG. 6B). To confirm this observation, we performed a co-immunoprecipitation analysis of HA and FLAG-tagged STAT3.

[7] = test system: STAT3; test: STAT3-dependent luciferase reporter assay in transiently transfected H1299 cells; assay type: cell-based, human; conditions: newly synthesized compound
Source text: FIG. 1. Schematic diagram and identification of inS3-54 by virtual screening. (A) DNA-STAT3 complex structure (PDB code: 1BG1). […] (B) Luciferase activity assay of MDA-MB-231 cells stably transfected with STAT3-dependent luciferase reporter. (C) Structure of inS3-54. (D) Luciferase activity assay of H1299 cells transiently transfected with STAT3-dependent luciferase reporter. (E) Simulated average complex structure of inS3-54 in the DBD of STAT3. (F & G) Molecular surface of STAT3 (F) and STAT1 (G) complexed with inS3-54 from MD simulation with orientation shown in gold for STAT3 and pink for STAT1. Molecular surface is colored with gray for carbon, blue for nitrogen, red for oxygen and yellow for sulfur. (**p<0.01).
To confirm the activity of the compound using re-supplied material, to eliminate the potential issues associated with the use of a single stable clone harboring the luciferase reporter gene, and to test if inS3-54 is cell line specific, we tested newly synthesized inS3-54 using H1299 cells transiently transfected with the STAT3-driven luciferase reporter plasmid. […] Thus, the activity of inS3-54 is not derived from potential contamination in the original supply and it is not dependent on cell line specific or transfection method used.

[8] = test system: hematopoietic progenitor cells from STAT3−/− mice; test: Hematopoietic progenitor cell colony formation assay, STAT3−/− mice; assay type: cell-based, mouse; conditions: 20 μM
Description: Hematopoietic progenitor cell colony formation assay was performed as previously described. Briefly, 5×10^4 STAT3^+/+ and STAT3^−/− mouse (C57BL/6) bone marrow cells were stimulated in vitro with 1 U/ml recombinant human erythropoietin, 50 ng/ml recombinant mouse stem cell factor and 5% vol/vol pokeweed mitogen mouse spleen cell conditioned medium, and 0.1 mM hemin in the presence of either IMDM medium, IMDM medium plus inS3-54 analogues or DMSO vehicle control. Colonies were scored seven days after incubation at 37° C. with 5% CO2 and lowered (5%) 02.

[9] = Cytotoxicity sulphorhodamine (SRB) assay, non-cancerous cells; conditions: human, IMR90 lung fibroblast and MCF10A1 mammary epithelial cells
Description: as §1, §2, §3

[10] = test system: MDA-MB-468; test: PARP cleavage in MDA-MB-468 cells; assay type: cell-based, human; conditions: 72-hour treatment, data not shown
[11] = test system: A549 and MDA-MB-231 cells; test: Luminescence-based glutathione alkylation assay (GSH-Glo); assay type: cell-based, human; conditions: 20 μM inS3-54 48 hours, 15 mM iodoacetamide 30 minutes
Source text: FIG. 5. Effect of inS3-54 glutathione level. […] (***p<0.001).
To further eliminate the possibility that inS3-54 has alkylating activity, we performed luminescence-based glutathione alkylation assay.

[12] = 200 mg/kg oral, every two days for four weeks

| SMILES | STAT3 binding to the promoter of cyclin D1 gene (ChIP) [1] | final tumor weight compared to control-treated group [2, 12] | mouse body weight [2, 12] | weight of other organs [2, 12] | xenograft tumor growth compared to vehicle control [2, 12] | lung metastasis ([2]; H&E staining and histology) | expression of survivin and VEGF in xenograft tumors ([2]; immunohistochemistry) | dose tolerated by mice [3] | cytotoxicity to noncancerous cells [4] | cytotoxicity to lung fibroblast [4] | IC50 ([4]; read-out: IC50, noncancerous lung fibroblast, lung fibroblast (IMR90)) [µM] | plasma concentration [5] | production of dimeric STAT3c ([6]; 24 hrs, non-reducing SDS-PAGE or non-denaturing PAGE) | co-immunoprecipitation between HA- and FLAG-tagged STAT3 ([6]; H1299 cells) | STAT3-dependent luciferase reporter expression [7] | colony formation of hematopoietic progenitor cells from STAT3−/− mice [8] | IC50 at 72 h [9] [µM] | cleavage of PARP [10] | glutathione level [11] |
| --- | --- | --- | --- | --- | --- | --- | --- | --- | --- | --- | --- | --- | --- | --- | --- | --- | --- | --- | --- |
| O=C1C(=Cc2ccc(Cl)cc2)C=C(c2ccccc2)N1c1ccc(O)cc1 [Compound A18] | eliminated | significantly less | no significant effect | no difference | significantly reduced | None of the A18-treated mice has any signs of lung metastasis | reduced | up to 200 mg/kg | little cytotoxicity |  |  |  |  |  |  |  |  |  |  |
| CC(=O)Nc1ccc(N2C(=O)C(=Cc3ccc(Cl)cc3)C=C2c2ccccc2)cc1 [Compound A26] |  |  |  |  |  |  |  |  |  | high level cytotoxicity | 4 | very low |  |  |  |  |  |  |  |
| O=C(O)c1ccc(N2C(=O)/C(=C/c3ccc([N+](=O)[O-])cc3)C=C2c2ccccc2)cc1 [inS3-54, 4-[(3E)-3-[(4-nitrophenyl)-methylidene]-2-oxo-5-phenylpyrrol-1-yl]benzoic acid] |  |  |  |  |  |  |  |  |  |  |  | very low | had no effect | had no effect | significantly inhibits | further reduced | 10 to 12 | induced cleavage of PARP | did not significantly reduce |
